Measurements reported in patent US20230065158A1, “OXABICYCLOHEPTANES FOR TREATMENT OF SMALL CELL LUNG CANCER” (Lixte Biotechnology, Inc., priority 2021, published 2023).
Read-outs that look alike come from different tables or passages of the source.

What was measured:
[1] = system: H69 cells; experiment: Cell Counting Kit-8 cytotoxicity and drug combination, H69
Method: A Mann-Whitney U test was used for comparison between the normal and SCLC samples. FIG. 1B: IHC for PP2A was conducted on TMA tissue sections and images were captured at 4× or 20× using a 3D-Histech PANNORAMIC SCAN whole slide scanner (3D-Histech, Budapest, Hungary). […] TMAs were scored in normal (n=24) and tumor (n=79) cores on a scale from 0 (no staining/no protein expression) to 3+(strong staining/high protein expression). FIG. 1C: Summary bar graph of the average PP2A subunit staining. IHC staining intensity of normal and tumor cores. […] FIG. 1D: In order to compare the expression of PP2A subunits A and C, cell lysates from seven SCLC cell lines and HBEC 3KT (non-malignant cell line) were subjected to western blotting. FIG. 1E: PP2A activity was determined using a serine/threonine phosphatase activity assay (Millipore) after 24 h exposure to cantharidin (10 μM) and LB-100 (5 μM). […] The Cell Counting Kit-8 assay detected cell H524 and H69 cell viability. […] FIGS. 1I-1K: Graphs depict the mean+SEM of percent viability for cells (n=3). Colony formation assays were used to count the ability of H524 (FIGS. 11 and 1J) and H69 (FIGS. 1K and 1L) cells to form colonies. […] Representative images of colonies at 4× are shown under the graph (n=2).*p<0.05; **, p<0.01; *** p<0.001; ****, p<0.0001. Experiments were repeated in triplicate and representative data are shown.

[2] = system: H446 spheroids; experiment: H446 spheroid growth, IncuCyte Live-Cell Analysis; format: cell-based; conditions: LB100 20 μM, up to 72 hours
Method: FIGS. 2A-2H depict the effect of LB-100 on H446 spheroid growth. FIG. 2A: Morphology of a single spheroid of H446 cells on days one and nine. Spheroids grow continuously and H&E staining is represented. FIG. 2B: Spheroid's growth in response to LB-100 treatment was recorded with IncuCyte Live-Cell Analysis System. FIG. 2C: Cytotoxicity effect of LB100 was recorded with IncuCyte Live-Cell Analysis System in the presence of LB-100 and IncuCyte Cytotox reagent in green fluorescence. […] Scale bar 100 μm. (FIGS. 2E and 2G). Effect of LB100 and carboplatin alone or in combination was monitored using IncuCyte Live Cell system for 70 h.
We further investigated the effect of LB100 and the chemotherapy drugs on spheroids formed by SCLC cells. Three cell lines H524, H69 and H446 were tested. The H524 and H69 cells formed large soft clumps in low-attachment 96 well plates. […] H446 spheroids treated with or without 20 μM LB100 were imaged in brightfield (BF) and using green fluorescence over 72 hours. The size of the spheroids was measured using an automated software algorithm that masked the largest BF in the field of view (label-free, real-time live cell assay for spheroids: IncuCyte bright-field analysis). […]
H446 cells were plated at a density of 10,000 cells per well and spheroid allowed to form (72-hours). […] Spheroids were imaged every 4 hours for 6 days and analyzed using the IncuCyte ZOOM software.

[3] = system: MET; experiment: MET phosphorylation (Tyr 1234/1235) western blot after HGF stimulation; format: cell-based; conditions: HGF 10 min
Excerpt: FIGS. 4A-4F depict a reactome pathway analysis of PamGene PTKs and STKs after LB-100 treatment of H524 cells and Biolog phenotype MicroArray. […] Table includes 10 carbon sources affected by LB-100 (n=3). […] P<0.001 (***) for control (untreated cells) vs. LB-100. FIG. 4D: Amplex Red Glucose/Oxidase assay kit was used to measure glucose level in cell culture media. […] Glucose concentration detected in initial medium and counted as 100%. Subtracting final medium level of glucose from initial glucose medium concentration yielded % glucose in the medium with cells (n=3). Effect of LB-100 on MET phosphorylation. […] FIG. 4F: H524 cell lysates (control, LB-100, carboplatin and combination (LB-100/carboplatin) were analyzed by western blots to check phosphorylation status of MET at Ser985 and Tyr1234/1235. Actin was used as a loading control (n=3). […]
Whole cell lysates were prepared using RIPA lysis buffer and proteins were detected by immunoblotting using antibodies specific against PP2A A, PP2A C, Phospho-Histone H2AX (S139), MET, pMet (Tyr 1234/1235), Cleaved Caspase 3 and pan-Actin antibodies from CST (City of Industry, CA), Cleaved PARP1 (Santa Cruz Biotechnology, Dallas, Tex.) and pMET (Ser985) (ThermoFisher Scientific, Waltham, Mass.) were used as described previously (22).

[4] = system: extensive-stage small cell lung carcinoma; conditions: first study subject
Excerpt: The Phase Ib study is a single arm study expected to enroll 18 evaluable patients (maximum 30) entered in groups of 3 at escalating doses of LB-100 using the traditional 3+3 design. […] Each cycle is defined as 3 weeks (21 days). Patients will then proceed to maintenance with LB-100 and atezolizumab. Patients who discontinue study therapy without disease progression will continue to be evaluated for tumor response using RECIST v1.1 (Appendix B) guidelines every 6-8 weeks until disease progression, death, or study closure.
Dose Escalation: The Phase I dose-finding will use a traditional 3+3 to determine the maximum tolerated dose (MTD), based on first cycle DLTs. A maximum of 4 dose levels of LB-100 will be explored. […]
Treatment Overview: This Phase Ib study of LB-100 diluted in 50 mL of normal saline for injection will be administered intravenously in the outpatient clinic over 15 minutes in patients with extensive-stage small cell lung cancer. […] All three patients at each dose level will be assessed for evidence of limiting toxicity through their return visit day 21 (and any delay prior to the start of cycle 2) before the decision is made for dose escalation in the next cohort.

[5] = system: H82 cells; experiment: Cell Counting Kit-8 cytotoxicity, H82; conditions: read-out: Cytotoxicity IC50; H82; 72 hours
Excerpt: To determine specific cytotoxicity, we used Cell Counting Kit-8 (Dojindo Molecular Technologies, Rockville, Md.) as previously described (50).

SMILES | IC50 ([1]; Homo sapiens, NCI-H69, 72 h, read-out: Cytotoxicity IC50, H69, 72 hours) [µM] | IC50 ([1]; human, 72 h) [µM] | spheroid size (bright-field analysis) [2] | level of HGF phosphorylation of MET ([3]; H69, LB100 20 μM) | MET basal and HGF activated phosphorylation ([3]; H524, LB100 5 μM) | partial objective response ([4]; after the 2nd cycle, LB-100 0.83 mg/m2 days 1 & 3 with carboplatin/etoposide/atezolizumab) [%] | decrease in measurable tumor ([4]; following the 4th and last cycle of induction therapy) [%] | IC50 [5] [µM]
C[NH+]1CCN(C(=O)C2C(C(=O)O)[C@H]3CC[C@@H]2O3)CC1 (stereo in doubt) [LB-100, 3-[(4-Methylpiperazin-1-yl)carbonyl]-7-oxabicyclo[2.2.1]heptane-2-carboxylic acid] | ~20 | 22.6 | spheroid shrinkage | significantly decreased | almost abrogated | 47 | 58 | –
N.N.O=C([O-])C1(C(=O)[O-])CCC1.[Pt+2] [Carboplatin, reference compound] | – | – | – | – | – | – | – | 46.5
